Measurements as given in ChEMBL document CHEMBL1649474, “Pharmacodynamics of levofloxacin in a murine pneumonia model of Pseudomonas aeruginosa infection: determination of epithelial lining fluid targets” (Antimicrob Agents Chemother, 2009).

What was measured:
[1] = Drug uptake in epithelial lining fluid of Swiss-Webster mouse infected with Pseudomonas aeruginosa at 200 mg/kg, ip administered as single dose; assay type: ADME, organism-based; set-up: dose 200 mg/kg, route intraperitoneal; details: in vivo
[2] = Apparent clearance in epithelial lining fluid of Swiss-Webster mouse infected with Pseudomonas aeruginosa at 200 mg/kg, ip administered as single dose
Pseudomonas aeruginosa = experiment: Antimicrobial activity against Pseudomonas aeruginosa infected in Swiss-Webster mouse at 200 mg/kg, ip administered as single dose; assay type: functional, organism-based; set-up: dose 200 mg/kg, route intraperitoneal
[3] = Apparent volume of distribution with respect to bioavailability in epithelial lining fluid of Swiss-Webster mouse infected with Pseudomonas aeruginosa at 200 mg/kg, ip administered as single dose; assay type: ADME, organism-based; details: read-out: Vc/F
[4] = AUC in plasma of Swiss-Webster mouse infected with Pseudomonas aeruginosa at 200 mg/kg, ip administered as single dose; assay type: ADME, organism-based; set-up: dose 200 mg/kg, route intraperitoneal
[5] = AUC in epithelial lining fluid of Swiss-Webster mouse infected with Pseudomonas aeruginosa at 200 mg/kg, ip administered as single dose; assay type: ADME, organism-based; set-up: dose 200 mg/kg, route intraperitoneal
[6] = Absorption rate constant in epithelial lining fluid of Swiss-Webster mouse infected with Pseudomonas aeruginosa at 200 mg/kg, ip administered as single dose; assay type: ADME, organism-based; set-up: dose 200 mg/kg, route intraperitoneal; details: in vivo
[7] = Volume of distribution in epithelial lining fluid of Swiss-Webster mouse infected with Pseudomonas aeruginosa at 200 mg/kg, ip administered as single dose; assay type: ADME, organism-based; set-up: dose 200 mg/kg, route intraperitoneal; details: in vivo

C[C@H]1COc2c(N3CCN(C)CC3)c(F)cc3c(=O)c(C(=O)O)cn1c23.C[C@H]1COc2c(N3CCN(C)CC3)c(F)cc3c(=O)c(C(=O)O)cn1c23.O [LEVOFLOXACIN]
Drug uptake [1]: 77.7% | CL/F [2]: 1.3 mL/min | EC50 (Pseudomonas aeruginosa): 3.15 mg/L | Vd/F [3]: 0.044 L | AUC [4]: 64 µg·h/mL | AUC [5]: 49.8 µg·h/mL | Ka [6]: 7.81 h⁻¹ | Vd [7]: 0.024 L
